Data set [1] addresses T1, GRP receptor overexpressing PC-3 cells (Homo sapiens, UniProt P30550).
T1 construct: host or cells: PC-3 (human prostate cancer cell line)
In words: confocal live-cell imaging of uptake and blocking in PC-3 cells. The data set is classed as cell-based. Conditions: 37 °C, 30 min. As for the experimental part:
To determine BODIPY-BBN uptake in vitro, PC-3 cells (1.0 × 10^4 per well) were seeded in a two-well chamber slide (Nunc™ Lab-Tek™ II Chamber Slide™ System) containing growth media (1 mL) and incubated at 37 °C for 24 h. To study the uptake of BODIPY-BBN, PC-3 cells were incubated with 5 (10 nM in PBS, 37 °C for 30 min). At the same time blocking studies were performed. PC-3 cells were pre-incubated with RM2 (1000 nM in PBS, 37 °C for 5 min) before incubation with BODIPY-BBN (10 nM in PBS, 37 °C for 30 min). After washing with media (1.0 mL), blue whole cell stain was added and incubated at room temperature for 5 min. The cells were washed with PBS (3 × 1.0 mL), living cells were imaged using an inverted confocal microscope (Leica TCS SP5 II), and data were analyzed with Fiji.
(§1) The binding of BODIPY-BBN 5 toward GRP receptor overexpressing PC-3 cells was evaluated in confocal live-cell imaging (Fig. 4a). After incubation of BODIPY-BBN 5 (10 nM, 30 min), cells were treated with blue whole cell stain (5 min) and washed with PBS. […] We also confirmed the binding affinity of BODIPY-BBN 5 using [^125I-Tyr^4]bombesin in a competitive binding assay (Fig. 4b). […] We then determined the stability of our imaging tracer in human serum (37 °C) at pre-determined time points showing >90 % intact fluorescent imaging agent after 60 min of incubation (Additional file 1: Figure S6).

The nature of data set [2]: stability in human serum. Conditions: 37 °C, after 60 min of incubation, time points 0, 15, 30, 45, 60 min, fluorescence read-out. The data set is classed as in vitro ADME. The protocol:
as §1
Figure S6: Percent intact fluorescent ^19F-BODIPY-BBN in human serum at different time points (0, 15, 30, 45, and 60 min) after incubation at 37 °C.

Starred links: 1 amine or outer side, 2 acyl side, 3 side chain; linkers in the order of their positions; H or OH if unused. Non-standard residues stand in square brackets, D forms with d. Residues, ends and D or L forms follow the SMILES beside them. *: point of attachment. BODIPY(FL) = CC1=CC(C)=[N+]2C1=Cc1ccc(CCC(=O)*)n1[B-]2(F)F; X1 = O=C(CCc1cn(CCOCCOCCOCCN[*:1])nn1)[*:2]; Sta = CC(C)C[C@H](N)[C@@H](O)CC(=O)O; X2 = O=C(CN1CCC(N[*:1])CC1)[*:2]

T1 sequence (P30550 whole entry): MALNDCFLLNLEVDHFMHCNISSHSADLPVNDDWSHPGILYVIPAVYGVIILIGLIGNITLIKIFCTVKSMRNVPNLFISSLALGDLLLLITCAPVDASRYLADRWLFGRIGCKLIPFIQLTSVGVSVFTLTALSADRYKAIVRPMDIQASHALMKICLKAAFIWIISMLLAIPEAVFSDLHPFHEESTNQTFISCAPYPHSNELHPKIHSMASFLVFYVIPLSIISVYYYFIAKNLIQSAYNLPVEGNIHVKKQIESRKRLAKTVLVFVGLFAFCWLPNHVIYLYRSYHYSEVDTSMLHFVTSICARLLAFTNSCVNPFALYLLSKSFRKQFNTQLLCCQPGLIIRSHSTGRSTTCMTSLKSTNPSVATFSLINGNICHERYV

Consider `Cc1cc(C)n2c1C=C1C=CC(CCC(=O)NCCOCCOCCOCCn3cc(CCC(=O)NC4CCN(CC(=O)N[C@H](Cc5ccccc5)C(=O)N[C@@H](CCC(N)=O)C(=O)N[C@@H](Cc5c[nH]c6ccccc56)C(=O)N[C@@H](C)C(=O)N[C@H](C(=O)NCC(=O)N[C@@H](Cc5c[nH]cn5)C(=O)N[C@@H](CC(C)C)[C@@H](O)CC(=O)N[C@@H](CC(C)C)C(N)=O)C(C)C)CC4)nn3)=[N+]1[B-]2(F)F` [BODIPY-BBN 5] ({BODIPY(FL)}-[X1][X2][dF]QWAVGH[Sta]L-NH2), for which, in data set [1] (PC-3 cells pre-incubated with 100-fold excess of unlabeled GRP receptor antagonist (1000 nM, 5 min), then 10 nM probe), the “fluorescent signal after blocking (GRP receptor specificity)” value was “complete suppression of green fluorescent signal”. Also, in data set [1] (PC-3 cells, 10 nM in PBS, green fluorescence), the “binding in confocal live-cell imaging” value is on record as “antagonist-specific binding”. For the same compound, in data set [2], the “intact fluorescent imaging agent in human serum” value was greater than 90%.

(Values after article PMC4540712, “Development of a clickable bimodal fluorescent/PET probe for in vivo imaging” (EJNMMI Research, 2015).)
